Assay results published in US6486305B1, “METHOD OF MODULATING THE EFFICIENCY OF TRANSLATION TERMINATION AND DEGRADATION OF ABERRANT MRNA INVOLVING A SURVEILLANCE COMPLEX COMPRISING HUMAN UPF1P, EUCARYOTIC RELEASE FACTOR 1 AND EUCARYOTIC RELEASE FACTOR 3” (priority 1998, dated 2002).
Changes are numbered by the printed parent chain. In names and notes the source's numbering stands. Entries after “also recorded” stand apart in the source; their conditions may differ.

Experiments:
[1] = molecular target: T1, Upf1p-eRF3 interaction (Saccharomyces cerevisiae, UniProt P30771); assay: GST-eRF3 pull-down of purified FLAG-Upf1p with immunoblotting; type: binding, yeast; conditions: 1 mM ATP, 1 mM GTP, or 100 μg/ml poly(U) RNA
T1 construct: FLAG (N); made in house; host or cells: GST-eRF3: E. coli BL21(DE3) pLysS with pGEX2T-SUP35
T1 sequence (P30771 1-971): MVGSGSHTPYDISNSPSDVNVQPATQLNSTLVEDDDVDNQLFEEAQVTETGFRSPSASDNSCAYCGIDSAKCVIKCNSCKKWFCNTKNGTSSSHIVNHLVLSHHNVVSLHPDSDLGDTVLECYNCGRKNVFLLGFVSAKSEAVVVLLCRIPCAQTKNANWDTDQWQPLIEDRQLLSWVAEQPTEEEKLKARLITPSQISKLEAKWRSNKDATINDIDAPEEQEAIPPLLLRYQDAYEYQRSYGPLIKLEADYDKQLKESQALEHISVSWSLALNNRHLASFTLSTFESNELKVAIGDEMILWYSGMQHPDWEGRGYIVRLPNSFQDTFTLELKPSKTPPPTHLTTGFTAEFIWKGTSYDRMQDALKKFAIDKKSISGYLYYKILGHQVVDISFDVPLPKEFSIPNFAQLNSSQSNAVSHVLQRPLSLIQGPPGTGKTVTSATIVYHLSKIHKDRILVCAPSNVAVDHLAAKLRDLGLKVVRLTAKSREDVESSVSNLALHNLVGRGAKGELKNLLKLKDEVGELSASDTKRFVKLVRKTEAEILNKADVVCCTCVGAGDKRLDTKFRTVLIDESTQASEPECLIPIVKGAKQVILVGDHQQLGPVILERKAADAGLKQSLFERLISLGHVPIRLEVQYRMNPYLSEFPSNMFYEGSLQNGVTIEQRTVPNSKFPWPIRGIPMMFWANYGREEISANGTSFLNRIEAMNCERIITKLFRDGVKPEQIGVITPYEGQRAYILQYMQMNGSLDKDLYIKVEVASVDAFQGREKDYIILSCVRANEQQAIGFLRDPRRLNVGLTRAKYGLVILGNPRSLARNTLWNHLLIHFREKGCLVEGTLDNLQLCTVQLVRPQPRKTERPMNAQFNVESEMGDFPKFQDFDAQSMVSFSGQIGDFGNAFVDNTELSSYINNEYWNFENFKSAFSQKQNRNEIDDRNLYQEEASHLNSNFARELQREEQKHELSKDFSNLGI
Protocol: (§1) FIGS. 1A-1B. The yeast Upf1 protein interacts specifically with the peptidyl release factors. (1A) GST-eRF1 or GST-eRF3 […] proteins bind specifically to Upf1p in a yeast extract. Cytoplasmic extracts from a yeast strain BJ3505 transformed with either pG-1 (vector) or pG-1FLAGUPF1 (Flag-Upf1p) were prepared in IBTB and incubated with 30 μl GST, GST-eRF1 or GST-eRF3 sepharose-protein complexes. The sepharose-protein complexes were washed 2 times in IBTB (see materials and methods), resuspended in SDS-PAGE loading buffer, separated on an 8% SDS-PAGE gel and immunoblotted using anti-FLAG antibody. (1B) Upf1p interacts directly with both eRF1 and eRF3. Upf1p was purified as described previously (Czaplinski et al. 1995). 200 ng of Upf1p was added to 10 μl of GST, GST-eRF1 or GST-eRF3 sepharose-protein complexes in a total reaction volume of 200 μl in IBTB supplemented with KCl to the final concentration indicated above each lane. After 1 hour at 4° C. sepharose-protein complexes were washed for 3 minutes with 1 ml of IBTB supplemented with KCl to the final concentration indicated above each lane. The purified sepharose-protein complexes were resuspended in SDS-PAGE loading buffer and separated on a 7.5% SDS-PAGE gel and immunoblotted as in (A).
(§2) FIGS. 3A-3B. eRF3 and RNA compete for binding to Upf1p. (3A) Poly(U) RNA prevents Upf1p from binding to eRF3. Reaction mixtures were prepared as described in FIG. 1B, except that binding was performed in TBSTB (TBST with 100 μg/ml BSA) and reaction mixtures contained 1 mM ATP, 1 mM GTP, or 100 μg/ml poly(U) RNA as indicated above each lane. The reaction mixtures were mixed for 1 hour at 4° C. Following mixing, the complexes were washed as in FIG. 1B with TBSTB containing 1 mM ATP, 1 mM GTP, or 100 μg/ml poly(U) RNA as indicated above each lane. […]
(§3) Further, purified Flag-Upf1p with poly(U) RNA was incubated in the presence or absence of ATP. Following incubation, GST-eRF3 was added to the reaction mixtures and the Upf1-eRF3 interaction was monitored by immunoblotting analysis as before.

[2] = tested on: isogenic wild-type and upf3Δ strains; assay: Paromomycin sensitivity, zone of growth inhibition around a disc on a lawn of cells; type: cell-based, Saccharomyces cerevisiae
Protocol: FIG. 11. Paromomycin sensitivity was monitored in isogenic wild-type and upf3Δ strains by placing a disc containing 1 mg of paromomycin onto a lawn of cells and determining the zone of growth inhibition around the disc.
Paromomycin sensitivity was monitored in isogenic wild-type and upf3Δ strains by placing a disc containing 1 mg of paromomycin onto a lawn of cells and determining the zone of growth inhibition around the disc (FIG. 11).

[3] = tested on: −1 ribosomal frameshifting; assay: β-galactosidase assay of −1 ribosomal frameshifting in the presence of paromomycin; type: cell-based, Saccharomyces cerevisiae
Protocol: Cloning of UPF3: The strategy used to clone the UPF3 gene was the same that was used to clone UPF2 (Cui, Y, K. W. Hagan, S. Zhang, and Peltz, S. W. (1995)). […] Killer assays, frameshifting assays and extraction and analysis of total nucleic acids: The killer assay was carried out as previously described (Dinman, J. D., and Wickner, R. B. (1992)) by replica plating colonies onto 4.7 MB plates newly seeded with a lawn of 5×47 killer indicator cells (0.5 ml of a suspension at 1 unit of optical density at 550 nm per ml per plate). After 2 days at 20° C., killer activity was observed as a zone of growth inhibition around the killer colonies. To quantitate loss of killer activity, colonies that had been identified as killer^+ were re-streaked for single colonies and the percentage of killer^+ colonies were determined. The efficiencies of −1 frameshifting were determined as previously described (Cui, Y. Dinman, J. D., and Peltz, S. W. (1996); Dinman, J. D., Ruiz-Echevarria, M. J., Czaplinski, K. and Peltz, S. W. (1 997b)) using the 0-frame control (pTI25) and −1 reporter (pF8) plasmids. […]
The effect of paromomycin on −1 ribosomal frameshifting was analyzed further by β-galactosidase assay using plasmids pF8 (−1 frameshift reporter construct) or pTI25 (zero frame control) in isogenic wild-type and upf3Δ strains. […]

[4] = molecular target: T2, Upf1p-eRF3 interaction (Saccharomyces cerevisiae, UniProt P30771, K436A); assay: GST-eRF3 pull-down of purified FLAG-Upf1p with immunoblotting; type: binding, yeast; conditions: GST-eRF3
T2 construct: FLAG (N); made in house; host or cells: GST-eRF3: E. coli BL21(DE3) pLysS with pGEX2T-SUP35
Protocol: as §1, §2, §3

[5] = molecular target: T3, Upf1p-eRF1 interaction (Saccharomyces cerevisiae, UniProt P30771, K436A); assay: GST-eRF1 pull-down of purified FLAG-Upf1p with immunoblotting; type: binding, yeast; conditions: GST-eRF1, various KCl concentrations
T3 construct: FLAG (N); made in house; host or cells: GST-eRF1: E. coli BL21(DE3) pLysS with pGEX2T-SUP45
Protocol: as §1, with “After 1 hour at 4° C. sepharose-protein complexes were washed for 3 minutes with 1 ml of IBTB supplemented with KCl to the final concentration indicated above each lane. The purified sepharose-protein complexes were resuspended in SDS-PAGE loading buffer and separated on a 7.5% SDS-PAGE gel and immunoblotted as in (A).” left out
Previous results have shown that strains harboring mutations in the conserved lysine residue in position 436 of the Upf1p (K436) result in stabilization of nonsense-containing mRNAs and a nonsense suppression phenotype (Weng et al., 1996a). […] Reaction mixtures containing the K436A form of Upf1p, GST-eRF1 and various KCl concentrations were prepared,and their interaction was monitored as described above.

T3 sequence (P30771 whole entry K436A): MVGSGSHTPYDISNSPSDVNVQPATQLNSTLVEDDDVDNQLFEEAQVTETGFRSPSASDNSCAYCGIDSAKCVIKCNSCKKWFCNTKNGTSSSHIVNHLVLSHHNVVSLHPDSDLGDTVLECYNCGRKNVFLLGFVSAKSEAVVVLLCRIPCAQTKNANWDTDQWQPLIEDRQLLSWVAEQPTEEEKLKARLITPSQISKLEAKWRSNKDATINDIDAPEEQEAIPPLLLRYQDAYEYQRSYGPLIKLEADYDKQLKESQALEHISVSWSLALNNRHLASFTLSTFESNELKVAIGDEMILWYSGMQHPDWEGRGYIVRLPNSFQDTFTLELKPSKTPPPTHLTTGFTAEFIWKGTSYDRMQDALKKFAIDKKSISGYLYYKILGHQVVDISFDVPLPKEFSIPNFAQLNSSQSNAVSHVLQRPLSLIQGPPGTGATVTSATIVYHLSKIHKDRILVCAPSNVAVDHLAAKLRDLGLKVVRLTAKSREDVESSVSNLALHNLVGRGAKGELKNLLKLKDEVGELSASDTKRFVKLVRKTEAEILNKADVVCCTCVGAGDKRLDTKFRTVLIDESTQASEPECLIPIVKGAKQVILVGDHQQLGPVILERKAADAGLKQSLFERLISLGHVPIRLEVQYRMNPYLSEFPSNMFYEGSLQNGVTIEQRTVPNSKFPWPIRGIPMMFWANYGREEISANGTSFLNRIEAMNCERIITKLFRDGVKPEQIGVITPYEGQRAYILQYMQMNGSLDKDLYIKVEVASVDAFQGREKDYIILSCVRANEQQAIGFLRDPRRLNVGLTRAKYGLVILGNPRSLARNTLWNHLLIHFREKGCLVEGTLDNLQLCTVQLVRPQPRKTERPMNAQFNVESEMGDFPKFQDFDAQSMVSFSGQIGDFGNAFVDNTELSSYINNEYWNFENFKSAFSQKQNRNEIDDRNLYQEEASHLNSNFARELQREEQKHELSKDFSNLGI
T2 sequence (P30771 whole entry K436A): as above

Nc1ncnc2c1ncn2[C@@H]1O[C@H](COP(=O)(O)OP(=O)(O)OP(=O)(O)O)[C@@H](O)[C@H]1O [ATP]
Effect on interaction between Upf1p and eRF3 [1]: did not affect the interaction; also recorded: did not prevent association of Upf1p with eRF3

Nc1nc2c(ncn2[C@@H]2O[C@H](COP(=O)(O)OP(=O)(O)OP(=O)(O)O)[C@@H](O)[C@H]2O)c(=O)[nH]1 [GTP]
Effect on interaction between Upf1p and eRF3 [1]: not affected

NC[C@@H]1O[C@H](O[C@H]2[C@@H](O)[C@H](O[C@@H]3[C@@H](O)[C@H](N)C[C@H](N)[C@H]3O[C@H]3O[C@H](CO)[C@@H](O)[C@H](O)[C@H]3N)O[C@@H]2CO)[C@H](N)[C@@H](O)[C@@H]1O [paromomycin]
Paromomycin sensitivity (hypersensitivity) ([2]; upf1Δ or upf2Δ strains): Neither the upf1Δ or upf2Δ strains demonstrate hypersensitivity | Paromomycin sensitivity (zone of growth inhibition) ([2]; upf3Δ strain vs isogenic wild-type, disc containing 1 mg of paromomycin): more sensitive to paromomycin than the isogenic wild-type strain | β-galactosidase activity (−1 frameshift reporter) ([3]; upf3Δ cells carrying pF8, liquid media, different concentrations of the drug): increased continuously with increased concentrations of paromomycin | β-galactosidase activity ([3]; wild-type cells containing pF8, or any strain carrying pTI25 (zero frame control)): unaffected

B1: Upf1K436A: purified K436A form of the Upf1p, mutation of the conserved lysine residue in position 436 (protein, UniProt P30771 1-971, looked up, variant K436A)
ATP-dependent helicase NAM7: T1 sequence (P30771 1-971) with K436A
Interaction with eRF3 relative to wild-type Upf1p [4]: equivalent affinity as the wild-type Upf1p | Reduction of interaction with eRF1 relative to wild-type Upf1 [5]: 4 to 6 fold
